Source: US20100087374A1, “Methods for Treatment and Diagnosis of Pulmonary Diseases Based on the Expression of SERCA2 Protein” (priority 2008, published 2010)

Assays:
IL-8 and GM-CSF release = assay: Ozone-mediated cytokine release with extracellular nucleotide supplementation; assay type: cell-based, human
Description: Ozone-mediated cytokine release was studied in polarized air-liquid interface cultures of non-CF and CF cell lines. 16HBEo- and CF4lo- cells were cultured on collagen coated 30 mm inserts. Once cells were polarized (8-10 days in culture) cells were exposed to 0, 100 or 200 ppb ozone with 200 μl media on the apical surface. At the end of exposure (18 h) additional 200 μl media was added to the apical surface. Aliquots were collected after 4 h and analyzed for the cytokine as described before. […] Apical media was collected and analyzed for IL-8 and GM-CSF.

SERCA2 protein = SERCA2 protein expression by Western blot after CFTRinh172 treatment; assay type: cell-based, human; settings: 20 μM, 24 h
[1] = system: Primary human bronchial epithelial cells; assay: Cell death after ozone exposure with CFTRinh172; assay type: cell-based; settings: 20 μM
Description: For assessing ozone toxicity, primary human airway epithelial cells were transfected either with a control or SERCA2 siRNA for 24 h and exposed to 0 ppb or 200 ppb ozone for 18 h. Following exposure, cells were analyzed for cell death using Vybrant apoptosis assay kit (Molecular Probes, Eugene, Oreg.), as described before (63). In this method, apoptotic cells bearing phosphatidylserine in the plasma membrane outer leaflet were identified as those binding Alexa Fluor 488-labeled annexin V and necrotic cells as those binding fluorescent DNA-binding dye SYTOX Green. The Alexa Fluor-488 labeled annexin-positive apoptotic and Sytox green-positive dead cells were quantified by flow cytometry. The columns represent means of data and * indicates significant difference (p<0.05) from 0 ppb controls cells. # indicates significant difference from 200 ppb controls (n=3). This experiment was repeated 4 times.
Exposure of airway epithelial cells to ozone at precise levels was carried out in a computer controlled in vitro exposure chamber as described previously (78). Primary human bronchial epithelial cells cultured on collagen-coated 6-well plates were treated with 20 μM CFTRinh172 for 30 min and then exposed to either 0 ppb (−) or 200 ppb (+) ozone. ATP content of the extracellular media was analyzed after 30 min and cell death was estimated after 8 h of ozone exposure as described in the Methods. […]

[2] = system: Primary human bronchial epithelial cells; assay: Ozone-mediated extracellular ATP release with CFTRinh172; assay type: cell-based; settings: 20 μM for 30 min, then 200 ppb ozone 30 min
Description: Exposure of airway epithelial cells to ozone at precise levels was carried out in a computer controlled in vitro exposure chamber as described previously (78). Primary human bronchial epithelial cells cultured on collagen-coated 6-well plates were treated with 20 μM CFTRinh172 for 30 min and then exposed to either 0 ppb (−) or 200 ppb (+) ozone. ATP content of the extracellular media was analyzed after 30 min and cell death was estimated after 8 h of ozone exposure as described in the Methods. The data shown is a representative of 3 experiments (n=6). The bars represent means (SEM) of data and * indicates significant difference (p<0.05) from 0 ppb (− ozone) controls and # indicates significant difference (p<0.05) from 200 ppb exposed cells without CFTRinh172.

[3] = system: primary human bronchial epithelial (HBE), C-38 and IB3-1 cells; assay: Cytotoxicity of 24 h CFTRinh172 incubation; assay type: cell-based; settings: 20 μM
IL-8 release [4] = assay: Ozone-mediated IL-8 release with NF-κB inhibitor preincubation; assay type: cell-based, human; settings: CF cells; 10 μM preincubation 30 min; ozone 18 h
Description: Ozone-mediated cytokine release was studied in polarized air-liquid interface cultures of non-CF and CF cell lines. 16HBEo- and CF4lo- cells were cultured on collagen coated 30 mm inserts. Once cells were polarized (8-10 days in culture) cells were exposed to 0, 100 or 200 ppb ozone with 200 μl media on the apical surface. At the end of exposure (18 h) additional 200 μl media was added to the apical surface. Aliquots were collected after 4 h and analyzed for the cytokine as described before.
Results are shown in FIG. 18; IL-8 (18A), G-CSF (18B) or GM-CSF (18C). Values are means±SE; n=6, and the figure is a representative of 4 individual experiments; * Significant difference from 0 ppb control, P<0.05 and # Significant difference from non-CF, P<0.05. Effect of preincubation of cells for 30 min with 10 μM [6-amino-4-(4-phenoxyphenylethylamino)quinazoline] For analysis of NF-κB activation, nuclear p65 was measured in non-CF and CF cells after exposure to ozone (E). As described above, cells were harvested and nuclear lysates were prepared after exposure to 200 ppb ozone. The cellular fractions were assessed for p65. Values are means±SE; n=6 and the data is a representative of 2 individual experiments; * Significant difference from 0 ppb control, P<0.05 and # Significant difference from non-CF, P<0.05.

IL-8 release [5] = assay: IL-8 release after thapsigargin preincubation and ozone; assay type: cell-based, human; settings: primary airway epithelial cells
Description: Primary airway epithelial cells were cultured on collagen coated 6-well plates. Cells were preincubated with 2 μM thapsigargin for 30 min and then exposed to 200 ppb ozone for 18 h. The supernatant media was collected and analyzed for cytokines as described before. Values are means±SE; n=6 and the data is a representative of 2 individual experiments; * Significant difference from 0 ppb control, P<0.05 and # Significant difference from ozone exposed untreated cells, P<0.05.

[6] = CF45o- cells, 10 μM preincubation 30 min, ozone 200 ppb, 18 h

In the case of `Nc1ncnc2c1ncn2[C@@H]1O[C@H](COP(=O)(O)OP(=O)(O)OP(=O)(O)O)[C@@H](O)[C@H]1O` [ATP], the GM-CSF release (IL-8 and GM-CSF release; [6]) is reported as “enhanced” and the IL-8 release (IL-8 and GM-CSF release; [6]) is reported as “enhanced”.

With `O=C(O)c1ccc(/C=C2\SC(=S)N(c3cccc(C(F)(F)F)c3)C2=O)cc1` [CFTRinh172] the SERCA2 expression (SERCA2 protein; parent CF cell line IB3-1) was “did not cause a further decrease”, the SERCA2 protein levels (SERCA2 protein; primary human bronchial epithelial (HBE) cells, air-liquid interface) was “significant decrease” and the SERCA2 protein levels (SERCA2 protein; wt-CFTR-corrected C-38 cells) was “significant decrease”. The “cytotoxicity of inhibitor itself” value ([1]; 0 ppb ozone) was “negligible cytotoxicity”, the “cell death in ozone” value ([1]; 200 ppb ozone 8 h) was “further enhanced the cell death” and the “Ozone-mediated release of ATP” value [2] was “completely abolished”. For the same compound, the cytotoxicity [3] was “did not cause cytotoxicity”.

With `Nc1ccc2ncnc(NCCc3ccc(Oc4ccccc4)cc3)c2c1` [NF-kB inhibitor, 6-amino-4-(4-phenoxyphenylethylamino)quinazoline] the “IL-8 levels in ozone” value (IL-8 release [4]) was “drop to control values”.

`C/C=C(/C)C(=O)O[C@H]1C(C)=C2[C@H]([C@@H]1OC(=O)CCCCCCC)[C@@](C)(OC(C)=O)C[C@H](OC(=O)CCC)[C@@]1(O)[C@H]2OC(=O)[C@@]1(C)O` [Thapsigargin, thapsigargin] was tested, and the “ozone mediated IL-8 release” value (IL-8 release [5]; 2 μM for 30 min, then 200 ppb ozone 18 h) was “further augmented” and the IL-8 release (IL-8 release [5]; 2 μM, control, 0 ppb exposed cells) was “enhanced”.

`O=c1ccn([C@@H]2O[C@H](COP(=O)(O)OP(=O)(O)OP(=O)(O)O)[C@@H](O)[C@H]2O)c(=O)[nH]1` [UTP] was tested, and the ozone-mediated cytokine release (IL-8 and GM-CSF release; CF cells, data not shown) was “enhanced”.
